Results from patent publication US20040014215A1, “Synchronised arabidopsis cell suspensions and uses thereof” (priority 2000, published 2004).

Test system: Arabidopsis cell suspension MM2d
Experiment: Aphidicolin block/release of MM2d: proportion of G1, S and G2 cells by flow cytometry
Format: cell-based, Arabidopsis thaliana
Method: The level of synchronicity of the Arabidopsis cell suspension culture MM1 was analysed by flow cytometry. The cell pellet from 5 ml of cell suspension culture was frozen in liquid nitrogen. To analyse the DNA content, the High Resolution Kit for Plant ploidy analysis (Type P) (Partec, Cat. No. 06-5-4004) was used, containing solution A (to release cell nuclei) and solution B (to stain DNA with DAPI). A sample of the frozen cell pellet was transferred into a small petri-dish (5 cm diameter), 150 μl of solution A was added, and the sample was carefully chopped with vertical motion of a sharp razor blade. An additional 150 μl of solution A was added, the cell suspension pipetted up and down for several time before leaving for approximately 2 min at RT. The released cell nuclei were filtered through a 50 μm nylon mesh (Partec, CellTrics 50 μm, Cat. No. 06-4-2317) and 1 ml of solution B was added to the filtrate. On average 8200 particles were counted with a flow cytometer (PASIII; Partec GmbH, Germany), using HBO lamp excitation (Partec, mercury lamp HBO 100 long life, 100W) and detection of emission using a blue filter. Cell cycle phases were analysed using Multicycle for Windows (Phoenix Flow Systems, San Diego, Calif.). Flow cytometry results are not corrected for the mitotic cells (which are not measured by this method).
This experiment was carried out as described for Example 1, except that cell line MM2d was used, and the culture conditions throughout the experiment were as described for MM2d in Example 1.
Synchronisation was performed as described in Example 2A, with the exception that before adding aphidicolin, 20 ml of the weekly subcultured cell suspension was transferred into 100 ml fresh MSS-medium in each of 2 separate flasks and cultivated under conditions as described in Example 1 for MM2d. […] Samples were taken at the same time frame for flow cytometry to follow cell cycle transition.
Samples were analysed by flow cytometry to determine the percentage of cells being in G1-, S- and G2M phase. The mitotic index (MI) and labelling index (LI) were independently determined (as described in Example 2A). Results are shown below in table II and in FIG. 1.
Table II. Aphidicolin block/release of Arabidopsis cell suspension MM2d. Data are shown from analysis of samples obtained in the experiment described in Example 2B.

C[C@@]1(CO)[C@H](O)CC[C@@]2(C)[C@H]1CC[C@H]1C[C@@H]3C[C@@]12CC[C@]3(O)CO [aphidicolin]
G1 (%) MM2d (0 h after aphidicolin removal): 46.9%
G2 (%) MM2d (0 h after aphidicolin removal): 16.4%
S (%) MM2d (0 h after aphidicolin removal): 36.6%
G1 (%) MM2d (1 h after aphidicolin removal): 16.6%
G2 (%) MM2d (1 h after aphidicolin removal): 4.9%
S (%) MM2d (1 h after aphidicolin removal): 78.6%
G1 (%) MM2d (2 h after aphidicolin removal): 21.5%
G2 (%) MM2d (2 h after aphidicolin removal): 5.3%
S (%) MM2d (2 h after aphidicolin removal): 73.2%
G1 (%) MM2d (3 h after aphidicolin removal): 24.8%
G2 (%) MM2d (3 h after aphidicolin removal): 11.2%
S (%) MM2d (3 h after aphidicolin removal): 64.1%
G1 (%) MM2d (4 h after aphidicolin removal): 18.8%
G2 (%) MM2d (4 h after aphidicolin removal): 48.2%
S (%) MM2d (4 h after aphidicolin removal): 33%
G1 (%) MM2d (5 h after aphidicolin removal): 15.1%
G2 (%) MM2d (5 h after aphidicolin removal): 74.8%
S (%) MM2d (5 h after aphidicolin removal): 10.1%
G1 (%) MM2d (6 h after aphidicolin removal): 12.5%
G2 (%) MM2d (6 h after aphidicolin removal): 80.6%
S (%) MM2d (6 h after aphidicolin removal): 6.9%
G1 (%) MM2d (7 h after aphidicolin removal): 10.5%
G2 (%) MM2d (7 h after aphidicolin removal): 89.5%
S (%) MM2d (7 h after aphidicolin removal): 0%
G1 (%) MM2d (8 h after aphidicolin removal): 9%
G2 (%) MM2d (8 h after aphidicolin removal): 91%
S (%) MM2d (8 h after aphidicolin removal): 0%
G1 (%) MM2d (9 h after aphidicolin removal): 7.6%
G2 (%) MM2d (9 h after aphidicolin removal): 92.4%
S (%) MM2d (9 h after aphidicolin removal): 0%
G1 (%) MM2d (10 h after aphidicolin removal): 10.1%
G2 (%) MM2d (10 h after aphidicolin removal): 89.6%
S (%) MM2d (10 h after aphidicolin removal): 0%
G1 (%) MM2d (11 h after aphidicolin removal): 17.2%
G2 (%) MM2d (11 h after aphidicolin removal): 82.8%
S (%) MM2d (11 h after aphidicolin removal): 0%
G1 (%) MM2d (12 h after aphidicolin removal): 27.7%
G2 (%) MM2d (12 h after aphidicolin removal): 72.3%
S (%) MM2d (12 h after aphidicolin removal): 0%
G1 (%) MM2d (13 h after aphidicolin removal): 32.1%
G2 (%) MM2d (13 h after aphidicolin removal): 67.9%
S (%) MM2d (13 h after aphidicolin removal): 0%
G1 (%) MM2d (14 h after aphidicolin removal): 34.3%
G2 (%) MM2d (14 h after aphidicolin removal): 65.7%
S (%) MM2d (14 h after aphidicolin removal): 0%
G1 (%) MM2d (15 h after aphidicolin removal): 40.7%
G2 (%) MM2d (15 h after aphidicolin removal): 59.3%
S (%) MM2d (15 h after aphidicolin removal): 0%
G1 (%) MM2d (16 h after aphidicolin removal): 34.9%
G2 (%) MM2d (16 h after aphidicolin removal): 59.4%
S (%) MM2d (16 h after aphidicolin removal): 5.8%
G1 (%) MM2d (17 h after aphidicolin removal): 40.8%
G2 (%) MM2d (17 h after aphidicolin removal): 52%
S (%) MM2d (17 h after aphidicolin removal): 7.3%
G1 (%) MM2d (18 h after aphidicolin removal): 40.7%
G2 (%) MM2d (18 h after aphidicolin removal): 47.9%
S (%) MM2d (18 h after aphidicolin removal): 11.3%
G1 (%) MM2d (19 h after aphidicolin removal): 38.4%
G2 (%) MM2d (19 h after aphidicolin removal): 47.3%
S (%) MM2d (19 h after aphidicolin removal): 14.4%
G1 (%) MM2d (20 h after aphidicolin removal): 37.7%
G2 (%) MM2d (20 h after aphidicolin removal): 45.5%
S (%) MM2d (20 h after aphidicolin removal): 16.9%
maximum G2 synchrony (MM2d, flow cytometry): 90%
maximum S phase synchrony (MM2d, flow cytometry): 79%
